Assay results published in US11192949B2, “HIV-1 vaccine” (CASE WESTERN RESERVE UNIVERSITY, priority 2013, dated 2021).
Where two headings read alike, the source gives them in different places.

Experiments:
[1] = system: A74 MVC treated week 21 virus (MVC.21); test: Drug susceptibility assay (reverse transcriptase activity) in U87.CD4.CCR5 cells, MVC selected virus MVC.21; format: cell-based, HIV-1
Method: (§1) (A) Virus A74 derived from passage control week 21 (PC.21) and MVC treated week 21 (MVC.21) cultures were used to infect U87.CD4.CCR5 cells in the presence of increasing concentrations of MVC. (B) These viruses were also used to infect U87.CD4.CCR5 cells in the presence of maximal inhibitory concentrations (10 μM) of CCR5 antagonists MVC and TAK-779 and fusion inhibitor enfuvirtide (T20). Reverse transcriptase activity was measured 7 days post infection. Percent infection was calculated relative to the no drug control for each virus. Data shown are means of triplicates with error bars representing standard deviations.
(§2) FIG. 15 illustrates a plot showing sensitivity to attachment inhibitor BMS-806. […] Reverse transcriptase activity was measured five days post infection and percent inhibition calculated based on the no drug condition. Data represents means of triplicates with standard deviations.
(§3) U87.CD4.CCR5 cells were plated in 96-well format (1×10^4 cells/well) for 24 hr. Cells were then treated for 2 hr with 5-fold dilutions of MVC (100 μM to 2×10^−6 μM) and then infected at a multiplicity of infection (MOI) of 0.001 infectious units (IU)/cell. All assays were performed in triplicate. After 24 hr, cells were washed in 1×PBS to remove free virus and media containing the appropriate MVC drug dilutions was added. Viral replication was measured daily by radio-labeled reverse transcriptase assay using a Packard beta counter to quantify counts per minute (cpm). Drug sensitivity curves were generated using non-linear regression curve fitting features of GraphPad Prism 5 software.

[2] = system: A74 passage control week 21 virus (PC.21); test: Drug susceptibility assay (reverse transcriptase activity) in U87.CD4.CCR5 cells, passage control virus PC.21; format: cell-based, HIV-1
Method: as §1, §2, §3

[3] = system: subtype B patient-derived MVC resistant virus R3; conditions: clone R3; multiple cycle conditions
Method: (§4) For multiple replication cycle drug susceptibility assays, U87.CD4.CCR5 cells were plated as above and pretreated with 5-fold dilutions of MVC (100 μM to 2×10^−6 μM). Cells were infected at an MOI of 0.001 IU/cell with NL4-3/gp120 chimeric virus in quadruplicate. After 24 hours, viral inoculums were removed and replaced with media containing the appropriate MVC dilutions. Reverse transcriptase activity in supernatant was monitored as previously described on days 4 through 7 post infection.

[4] = system: gp120 chimeric virus clone PC.1.1
Method: as §3
(§5) Gp120 chimeric viruses were cloned into an NL4-3 backbone from passage control and virus passaged in the presence of MVC escalations using the yeast homologous recombination-gap repair technique. From this point forward, the viruses and clones are referred to as […] (passage control) or MVC (maraviroc selected). 21 (number of passages). 1 (clone number) or PC.21.1 or MVC.21.1. The gp120 regions of the PC.1 (starting virus), PC.21 and MVC.21 viruses were PCR amplified using primers F_gp120 5′-[…]-3′ (SEQ ID NO: 1) and B_gp120 5′-[…]-3′ (SEQ ID NO: 2). Briefly, these gp120 PCR products were then co-transformed with a SacI-linearized pREC_NFL_Δgp120/URA3 into Saccharomyces cerevisiae MYA-906 cells (ATCC). Following homologous recombination, plasmids were extracted from the yeast cells and transformed into electrocompetent Escherichia coli Stbl4 cells (Invitrogen). Individual bacterial colonies were grown and plasmids were extracted using Qiagen miniprep kits. Chimeric pREC_NFL_gp120 plasmids were co-transfected into 293T cells (3×10^4 cells/well) along with the complementing plasmid pCMV_cplt using Fugene 6 reagent (Promega, Madison, Wis.) as described. Heterodiploid virus particles containing one copy of the NFL and cplt HIV-1 RNAs represent approximately half of the virus derived from 293T cell transfections and can be propagated on U87.CD4.CCR5 cells to produce replication competent virus with a complete virus genome. Virus stocks of each clone were titered as described above. The DNA sequences obtained in the course of this work were deposited in the GenBank/EMBL/DDBJ databases under the following accession numbers: env(gp120) (JX993942-JX993981).

[5] = system: gp120 chimeric virus clone MVC.21.122; conditions: U87.CD4.CCR5
Method: as §3, §5

[6] = system: gp120 chimeric virus clone MVC.21.119
Method: as §3, §5

[7] = system: gp120 chimeric virus clone PC.21.109
Method: as §3, §5

[8] = system: gp120 chimeric virus clone MVC.21.123
Method: as §3, §5

[9] = system: gp120 chimeric virus clone PC.21.111
Method: as §3, §5

[10] = system: gp120 chimeric virus clone MVC.21.128
Method: as §3, §5

[11] = system: gp120 chimeric virus clone MVC.21.122.425K
Method: as §3

[12] = system: gp120 chimeric virus clone MVC.21.132 (A74.MVC.21.132)
Method: as §3, §5
as §4, with “After 24 hours, viral inoculums were removed and replaced with media containing the appropriate MVC dilutions.” left out

[13] = system: HIV-1 subtype A primary isolate A74; test: Multiple cycle drug sensitivity assay in PBMC, virus A74; format: cell-based
[14] = system: CC1/85 MVC-resistant virus containing the T316 and V323 V3 loop mutations; conditions: 1 μM MVC; cited from earlier work
[15] = system: A74 passage control week 21 virus (PC.21); test: Multiple cycle drug sensitivity assay in PBMC, virus PC.21; format: cell-based, HIV-1
Method: (§6) U87.CD4.CCR5 cells were obtained through the AIDS Research and Reference Reagent Program, Division of AIDS, NIAID, NIH. U87.CD4.CCR5 cells were maintained in DMEM supplemented with 10% FBS, 100 μg/mL penicillin/streptomycin, 300 μg/mL G418, and 1 μg/mL puromycin (Invitrogen, Carlsbad, Calif.). 293T cells were cultured in DMEM supplemented with 10% FBS and 100 μg/mL penicillin/streptomycin. Peripheral blood mononuclear cells (PBMCs) were obtained from whole blood extracted from a HIV negative donor by Ficoll-Paque centrifugation. PBMC cultures were stimulated with 1 μg/mL phytohemagglutinin (PHA; Gibco, Carlsbad, Calif.) for 48 hrs in RPMI 1640 medium (Gibco) containing 10% FBS and 100 μg/mL penicillin/streptomycin. Cells were maintained thereafter in RPMI 1640 medium with 10% FBS, 100 μg/mL penicillin/streptomycin, and […] interleukin-2 (IL-2; Gibco).
(§7) All assays were performed in triplicate.
(§8) Therefore, multiple cycle drug sensitivity assays were performed in peripheral blood mononuclear cells (PBMC) isolated from an HIV negative donor with PC.21 and MVC.21.

[16] = system: HIV-1 subtype C primary isolate C8; conditions: read-out: mean IC50; U87.CD4.CCR5; virus C8
Method: as §3
(§9) We assessed “intrinsic” susceptibilities of HIV-1 subtype A, B, and C primary isolates to maraviroc. Multiple cycle drug susceptibility assays were performed in U87.CD4.CCR5 cells in the presence of 5-fold decreasing concentrations of MVC starting at 100 μM.

[17] = system: HIV-1 subtype B primary isolate B6; conditions: read-out: mean IC50; U87.CD4.CCR5; virus B6
Method: as §3, §9

[18] = system: A74.MVC.21.132 psuedovirus
Method: (§10) For single replication cycle drug susceptibility assays, U87.CD4.CCR5 cells in 96-well format (1×10^4 cells/well) were pretreated for 2 hours with 10-fold dilutions of MVC (1 μM to 1×10^−7 μM) then infected in triplicate with luciferase encoding psuedovirus. After 48 hours, supernatant was removed and cells were lysed using 50 μL Glo lysis buffer (Promega, Madison, Wis.). Cells were lysed for 20 minutes at room temperature, transferred to white polystyrene 96 well plates, and read with a PerkinElmer VICTOR plate reader using injectors to introduce 50 μL Bright Glo reagent per well (Promega, Madison, Wis.). Luciferase activity was measured as relative light units (RLU).

[19] = system: subtype B patient-derived MVC resistant virus R3; conditions: clone R3; single cycle conditions
Method: as §10

[20] = system: HIV-1 subtype A primary isolate A74; conditions: U87.CD4.CCR5; virus A74
B6.MVC.21 virus = conditions: U87.CD4.CCR5
Method: as §3
(§11) Reverse transcriptase (RT) activity was monitored in the cell-free supernatant for each weekly passage and inhibitor concentration increased when RT activity reached 2-fold over background.

B6.PC.21 virus = conditions: U87.CD4.CCR5
Method: as §3, §11

[21] = system: A74 MVC treated week 21 virus (MVC.21); test: Multiple cycle drug sensitivity assay in PBMC, virus MVC.21; format: cell-based, HIV-1
Method: as §6, §7, §8

[22] = highest MVC concentrations (4, 20, 100 μM)

COc1ccnc2[nH]cc(C(=O)C(=O)N3CCN(C(=O)c4ccccc4)C[C@H]3C)c12 [BMS-806]
inhibition ([1]; highest concentrations tested (50 and 5 μM), MVC.21): 98%
inhibition ([2]; highest concentrations tested (50 and 5 μM), PC.21): 46%

Cc1ccc(-c2ccc3c(c2)C=C(C(=O)Nc2ccc(C[N+](C)(C)C4CCOCC4)cc2)CCC3)cc1.[Cl-] [TAK-779]
inhibition of virus replication ([1]; 10 μM (IC99 inhibitory concentration), MVC.21): cross resistance
inhibition of virus replication ([2]; 10 μM (IC99 inhibitory concentration), PC.21): completely blocked

Maraviroc [MVC]
maximal percent inhibition (MPI) [3]: 61%
sensitivity to MVC inhibition [4]: sensitive
IC50 [5]: 0.9 nM
IC50 fold change relative to input gp120 clone PC.1.1 [6]: 40 fold
MPI [6]: > 95%
IC50 ([6]; U87.CD4.CCR5): 34 nM
inhibition (RT activity) [6, 22]: 97%
sensitivity to MVC inhibition [7]: sensitive
inhibition (RT activity) [7, 22]: 99.9%
IC50 fold change relative to input gp120 clone PC.1.1 [8]: 11 fold
MPI [8]: > 95%
sensitivity to MVC inhibition [9]: sensitive
IC50 fold change relative to input gp120 clone PC.1.1 [10]: 40 fold
MPI [10]: > 95%
IC50 ([10]; U87.CD4.CCR5): 37 nM
shift in IC50 relative to MVC.21.122 [11]: 36 fold
IC50 ([11]; U87.CD4.CCR5): 33 nM
rightward shift in IC50 compared with MVC sensitive clone A74.PC.21.109 ([12]; A74.MVC.21.132, multiple replication cycle conditions): 17 fold
IC50 fold change relative to input gp120 clone PC.1.1 ([12]; clone MVC.21.132): 10 fold
MPI ([12]; clone MVC.21.132): > 95%
IC50 ([12]; clone MVC.21.132, U87.CD4.CCR5): 8.8 nM
IC50 [13]: 5 nM
MPI [13]: 100%
level of replication in the presence of drug as compared to the absence of drug [14]: 25%
IC50 [15]: 5 nM
MPI [15]: 98%
IC50 ([15]; read-out: IC50): 6 nM
IC50 [16]: 2 nM
IC50 [17]: 2 nM
resistance in single cycle assay [18]: resistance could not be detected
maximal percent inhibition (MPI) [19]: 56%
IC50 [20]: 10 nM
MPI (maximal percent inhibition) [20]: 99%
IC50 ([1]; virus MVC.21): 216 nM
MPI (maximal percent inhibition) ([1]; virus MVC.21, highest drug concentration tested 100 μM): 81%
IC50 (B6.MVC.21 virus; B6 week 21 inhibitor treated culture): 14 nM
MPI (maximal percent inhibition) (B6.MVC.21 virus; virus B6.MVC.21): 99%
IC50 (B6.PC.21 virus; B6 week 21 control culture): 8 nM
MPI (maximal percent inhibition) (B6.PC.21 virus; virus B6.PC.21): 100%
IC50 [21]: 300 nM
MPI [21]: 73%
IC50 ([2]; virus PC.21): 1 nM
MPI (maximal percent inhibition) ([2]; virus PC.21): 100%
